SMILES strings stand for the structures.

A short description of series [1]: Hygroscopicity test (Chinese Pharmacopoeia 2010, weight gain by sorption). As to conditions: 25° C.±1° C., about 24 h; for Result (hygroscopic properties): cell wraps: 'Low hygroscopic'; for Weight gain by absorption (%): constant humidity (saturated ammonium chloride or ammonium sulfate). In kind it is physicochemical. On the procedure: Hygroscopicity Test of Crystalline Form I and Form III of the Compound of Formula (I) 1 Instrument and Regents 1.1 Instrument: 1/100000 Scale, XP205DR 1.2 Test Method According to “Chinese Pharmacopoeia”2010 edition, proportion II, XI X J. 1) Keep a dry glass weighing bottle with stopper (external diameter: 50 mm, height: 15 mm) in 25° C.±1° C. of thermostatic drier with saturated solution of ammonium chloride or ammonium sulfate placing on the bottom, precisely weighed (m1). 2) An appropriate amount of sample was spread in the weighing bottle by a millimeter thick, precisely weighed (m2). 3) An open weighing bottle and lid were kept together in environment of constant temperature and humidity for about 24 h.

Series [2] can be described thus: Stability (acceleration) test of crystalline forms, purity by HPLC. As to conditions: for change of appearance, related substance and crystalline form: 30 days; for Overall impurity (%) / impurity A (%) / impurity B (%) / purity (%): HPLC; for appearance: cell wraps ('powder' on next line). Format: physicochemical.
[3] abbreviates: day 0, cell wraps: shows characteristic peaks of the crystalline form.
[4] abbreviates: day 30, 40° C.±2° C./75% RH±5%, Yes = shows characteristic peaks of the crystalline form.

Regarding `COC(=O)N(C)c1c(N)nc(-c2nn(Cc3ccccc3F)c3ncccc23)nc1N` [crystalline form III, methyl {4,6-diamino-2-[1-(2-fluorobenzyl)-1H-pyrazolo[3,4-B]pyridine-3-yl]pyrimidine-5-yl}N-methylcarbamate], in series [1], the “Result (hygroscopic properties)” value is reported as “Low” and the “Weight gain by absorption (%)” value is recorded as 0.04%. For the same molecule, in series [2] (40° C.±2° C./75% RH±5%), the stability entry is recorded as “stable for a month”; the “change of appearance, related substance and crystalline form” value is “did not change”. In addition, in series [2] (day 0, 40° C.±2° C./75% RH±5%), the “Overall impurity (%)” value was determined as 0.65%, the “impurity A (%)” value came to 0.05%, the “impurity B (%)” value stood at 0.35% and the “purity (%)” value amounted to 99.4%. Further, the appearance entry in series [2] (day 0, 40° C.±2° C./75% RH±5%) is listed as “pale yellow”. In addition, in series [2] (setting [3]), the DSC result is recorded as “Show” and the XRD result is “Show”. Further, in series [2] (day 30, 40° C.±2° C./75% RH±5%), the “Overall impurity (%)” value came out at 0.57%, the “impurity A (%)” value is given as 0.04%, the “impurity B (%)” value was determined as 0.34% and the “purity (%)” value was 99.4%. Also, the appearance entry in series [2] (day 30, 40° C.±2° C./75% RH±5%) was “pale yellow”. In addition, in series [2] (setting [4]), the DSC entry was “Yes” and the XRD result was “Yes”.

Take `COC(=O)N(C)c1c(N)nc(-c2nn(Cc3ccccc3F)c3ncccc23)nc1N` [crystalline form I, methyl {4,6-diamino-2-[1-(2-fluorobenzyl)-1H-pyrazolo[3,4-B]pyridine-3-yl]pyrimidine-5-yl}N-methylcarbamate]: in series [1], the “Result (hygroscopic properties)” value is recorded as “Low” and the “Weight gain by absorption (%)” value turned out to be 0.1%. In series [2] (40° C.±2° C./75% RH±5%), the stability result is recorded as “stable for a month”; the “change of appearance, related substance and crystalline form” value is “did not change”. Moreover, in series [2] (day 0, 40° C.±2° C./75% RH±5%), the “Overall impurity (%)” value worked out at 0.44%, the “impurity A (%)” value is on record as 0.06%, the “impurity B (%)” value is recorded as 0.26% and the “purity (%)” value came out at 99.6%. Also, the appearance entry in series [2] (day 0, 40° C.±2° C./75% RH±5%) is listed as “Off-white”. Moreover, in series [2] (setting [3]), the DSC result is “Shows” and the XRD entry is recorded as “Shows”. Further, in series [2] (day 30, 40° C.±2° C./75% RH±5%), the “Overall impurity (%)” value is recorded as 0.43%, the “impurity A (%)” value was 0.06%, the “impurity B (%)” value is 0.26% and the “purity (%)” value worked out at 99.6%. In series [2] (day 30, 40° C.±2° C./75% RH±5%), the appearance result is reported as “Off-white”. Besides, in series [2] (setting [4]), the DSC result is reported as “Yes” and the XRD entry is on record as “Yes”.
